Assay results as given in ChEMBL document CHEMBL1201862, “PubChem BioAssay data set” (2004).
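These data come from cells grown in 96-well plates and exposed to compound for 48 hours at five concentrations. The concentration for 50% growth inhibition is given as GI50.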 Active and inactive are the calls of the source. Rule as the data show it: active = GI50 up to about 1.1 µM and inactive = higher.

Assays:
Experiment in all cases: DTP human tumour cell line panel, 48 h
786-0 = tested on: 786-0
A549 = tested on: A549
ACHN = tested on: ACHN
BT-549 = tested on: BT-549
CAKI-1 = tested on: CAKI-1
CCRF-CEM = tested on: CCRF-CEM
COLO 205 = tested on: COLO 205
DU-145 = tested on: DU-145
EKVX = tested on: EKVX
HCC 2998 = tested on: HCC 2998
HCT-116 = tested on: HCT-116
HCT-15 = tested on: HCT-15
HL-60 = tested on: HL-60
HOP-92 = tested on: HOP-92
HT-29 = tested on: HT-29
IGROV-1 = tested on: IGROV-1
K562 = tested on: K562
KM12 = tested on: KM12
LOX IMVI = tested on: LOX IMVI
M14 = tested on: M14
MCF7 = tested on: MCF7
MDA-MB-231 = tested on: MDA-MB-231
MDA-MB-435 = tested on: MDA-MB-435
MDA-N = tested on: MDA-N
MOLT-4 = tested on: MOLT-4
Malme-3M = tested on: Malme-3M
NCI-H226 = tested on: NCI-H226
NCI-H23 = tested on: NCI-H23
NCI-H460 = tested on: NCI-H460
NCI-H522 = tested on: NCI-H522
NCI/ADR-RES = tested on: NCI/ADR-RES
OVCAR-3 = tested on: OVCAR-3
OVCAR-4 = tested on: OVCAR-4
OVCAR-5 = tested on: OVCAR-5
OVCAR-8 = tested on: OVCAR-8
PC-3 = tested on: PC-3
RXF 393 = tested on: RXF 393
SF-295 = tested on: SF-295
SF-539 = tested on: SF-539
SK-MEL-28 = tested on: SK-MEL-28
SK-MEL-2 = tested on: SK-MEL-2
SK-MEL-5 = tested on: SK-MEL-5
SK-OV-3 = tested on: SK-OV-3
SN12C = tested on: SN12C
SNB-19 = tested on: SNB-19
SNB-75 = tested on: SNB-75
SR = tested on: SR
SW-620 = tested on: SW-620
T47D = tested on: T47D
TK-10 = tested on: TK-10
U-251 = tested on: U-251
UACC-257 = tested on: UACC-257
UACC-62 = tested on: UACC-62
UO-31 = tested on: UO-31
A498 = tested on: A498
HOP-62 = tested on: HOP-62
Hs-578T = tested on: Hs-578T
RPMI-8226 = tested on: RPMI-8226
SF-268 = tested on: SF-268

SMILES: COC(=O)C1=CC(=O)OC1(OO)c1ccccc1 (centres undefined)
- GI50 (786-0): 35.6 µM (inactive)
- GI50 (A549): > 100 µM (inactive)
- GI50 (ACHN): > 100 µM (inactive)
- GI50 (BT-549): > 100 µM (inactive)
- GI50 (CAKI-1): 38.8 µM (inactive)
- GI50 (CCRF-CEM): 18.7 µM (inactive)
- GI50 (COLO 205): > 100 µM (inactive)
- GI50 (DU-145): > 100 µM (inactive)
- GI50 (EKVX): > 100 µM (inactive)
- GI50 (HCC 2998): > 100 µM (inactive)
- GI50 (HCT-116): 88.3 µM (inactive)
- GI50 (HCT-15): 54 µM
- GI50 (HL-60): 3.18 µM (inactive)
- GI50 (HOP-92): 30.8 µM (inactive)
- GI50 (HT-29): 56.4 µM (inactive)
- GI50 (IGROV-1): > 100 µM (inactive)
- GI50 (K562): 33.5 µM (inactive)
- GI50 (KM12): > 100 µM (inactive)
- GI50 (LOX IMVI): 94.8 µM (inactive)
- GI50 (M14): > 100 µM (inactive)
- GI50 (MCF7): > 100 µM (inactive)
- GI50 (MDA-MB-231): > 100 µM (inactive)
- GI50 (MDA-MB-435): > 100 µM (inactive)
- GI50 (MDA-N): > 100 µM (inactive)
- GI50 (MOLT-4): 62.2 µM (inactive)
- GI50 (Malme-3M): 28.3 µM (inactive)
- GI50 (NCI-H226): > 100 µM (inactive)
- GI50 (NCI-H23): > 100 µM (inactive)
- GI50 (NCI-H460): > 100 µM (inactive)
- GI50 (NCI-H522): 30.3 µM (inactive)
- GI50 (NCI/ADR-RES): > 100 µM (inactive)
- GI50 (OVCAR-3): > 100 µM (inactive)
- GI50 (OVCAR-4): > 100 µM (inactive)
- GI50 (OVCAR-5): > 100 µM (inactive)
- GI50 (OVCAR-8): > 100 µM (inactive)
- GI50 (PC-3): > 100 µM (inactive)
- GI50 (RXF 393): > 100 µM (inactive)
- GI50 (SF-295): > 100 µM (inactive)
- GI50 (SF-539): > 100 µM (inactive)
- GI50 (SK-MEL-28): > 100 µM (inactive)
- GI50 (SK-MEL-2): > 100 µM (inactive)
- GI50 (SK-MEL-5): > 100 µM (inactive)
- GI50 (SK-OV-3): > 100 µM (inactive)
- GI50 (SN12C): > 100 µM (inactive)
- GI50 (SNB-19): > 100 µM (inactive)
- GI50 (SNB-75): 92.3 µM (inactive)
- GI50 (SR): 42.1 µM (inactive)
- GI50 (SW-620): 68.1 µM (inactive)
- GI50 (T47D): > 100 µM (inactive)
- GI50 (TK-10): > 100 µM (inactive)
- GI50 (U-251): > 100 µM (inactive)
- GI50 (UACC-257): > 100 µM (inactive)
- GI50 (UACC-62): > 100 µM (inactive)
- GI50 (UO-31): > 100 µM (inactive)

SMILES: COc1ccc(N2C(=O)C(=O)C3(CCCCC3)C2=O)c2ccccc12
- GI50 (A498): > 10 µM (inactive)
- GI50 (A549): > 10 µM (inactive)
- GI50 (ACHN): > 10 µM (inactive)
- GI50 (CAKI-1): > 10 µM (inactive)
- GI50 (CCRF-CEM): > 10 µM (inactive)
- GI50 (COLO 205): > 10 µM (inactive)
- GI50 (DU-145): > 10 µM (inactive)
- GI50 (EKVX): > 10 µM (inactive)
- GI50 (HCC 2998): > 10 µM (inactive)
- GI50 (HCT-116): > 10 µM (inactive)
- GI50 (HCT-15): > 10 µM
- GI50 (HL-60): > 10 µM (inactive)
- GI50 (HOP-62): > 10 µM (inactive)
- GI50 (HT-29): > 10 µM (inactive)
- GI50 (Hs-578T): > 10 µM (inactive)
- GI50 (IGROV-1): > 10 µM (inactive)
- GI50 (K562): > 10 µM (inactive)
- GI50 (KM12): > 10 µM (inactive)
- GI50 (LOX IMVI): > 10 µM (inactive)
- GI50 (M14): > 10 µM (inactive)
- GI50 (MCF7): > 10 µM (inactive)
- GI50 (MDA-MB-231): > 10 µM (inactive)
- GI50 (MDA-MB-435): > 10 µM (inactive)
- GI50 (MDA-N): > 10 µM (inactive)
- GI50 (MOLT-4): > 10 µM (inactive)
- GI50 (Malme-3M): > 10 µM (inactive)
- GI50 (NCI-H226): > 10 µM (inactive)
- GI50 (NCI-H23): > 10 µM (inactive)
- GI50 (NCI-H460): > 10 µM (inactive)
- GI50 (NCI-H522): > 10 µM (inactive)
- GI50 (NCI/ADR-RES): > 10 µM (inactive)
- GI50 (OVCAR-4): > 10 µM (inactive)
- GI50 (OVCAR-5): > 10 µM (inactive)
- GI50 (OVCAR-8): > 10 µM (inactive)
- GI50 (PC-3): > 10 µM (inactive)
- GI50 (RPMI-8226): > 10 µM (inactive)
- GI50 (RXF 393): > 10 µM (inactive)
- GI50 (SF-268): > 10 µM (inactive)
- GI50 (SF-295): > 10 µM (inactive)
- GI50 (SF-539): > 10 µM (inactive)
- GI50 (SK-MEL-28): > 10 µM (inactive)
- GI50 (SK-MEL-2): > 10 µM (inactive)
- GI50 (SK-MEL-5): > 10 µM (inactive)
- GI50 (SK-OV-3): > 10 µM (inactive)
- GI50 (SN12C): > 10 µM (inactive)
- GI50 (SNB-19): > 10 µM (inactive)
- GI50 (SNB-75): > 10 µM (inactive)
- GI50 (SR): > 10 µM (inactive)
- GI50 (SW-620): > 10 µM (inactive)
- GI50 (T47D): > 10 µM (inactive)
- GI50 (TK-10): > 10 µM (inactive)
- GI50 (U-251): > 10 µM (inactive)
- GI50 (UACC-62): > 10 µM (inactive)
- GI50 (UO-31): 9.77 µM (inactive)

SMILES: CC1=CCC[C@H]2[C@](C)(CC3=CC(=O)C4SCCSC4C3=O)[C@@H](C)CC[C@]12C (some centres undefined)
- GI50 (786-0): 18.5 µM (inactive)
- GI50 (A498): 16.1 µM (inactive)
- GI50 (A549): 17.2 µM (inactive)
- GI50 (ACHN): 18.2 µM (inactive)
- GI50 (BT-549): 20.6 µM (inactive)
- GI50 (CAKI-1): 25.2 µM (inactive)
- GI50 (CCRF-CEM): 11 µM (inactive)
- GI50 (COLO 205): 17.7 µM (inactive)
- GI50 (DU-145): 24.5 µM (inactive)
- GI50 (EKVX): 21.3 µM (inactive)
- GI50 (HCC 2998): 21.9 µM (inactive)
- GI50 (HCT-116): 13.8 µM (inactive)
- GI50 (HCT-15): 23.3 µM
- GI50 (HOP-62): 15 µM (inactive)
- GI50 (HOP-92): 31.4 µM (inactive)
- GI50 (IGROV-1): 32 µM (inactive)
- GI50 (K562): 19.9 µM (inactive)
- GI50 (KM12): 29 µM (inactive)
- GI50 (LOX IMVI): 11.2 µM (inactive)
- GI50 (M14): 14.3 µM (inactive)
- GI50 (MCF7): 20.5 µM (inactive)
- GI50 (MDA-MB-231): 13.2 µM (inactive)
- GI50 (MDA-MB-435): 8.09 µM (inactive)
- GI50 (MDA-N): 11.4 µM (inactive)
- GI50 (MOLT-4): 21.6 µM (inactive)
- GI50 (NCI-H226): 15.9 µM (inactive)
- GI50 (NCI-H23): 13.2 µM (inactive)
- GI50 (NCI-H460): 20 µM (inactive)
- GI50 (NCI/ADR-RES): 19.1 µM (inactive)
- GI50 (OVCAR-3): 18.5 µM (inactive)
- GI50 (OVCAR-4): 24.6 µM (inactive)
- GI50 (OVCAR-5): 18.6 µM (inactive)
- GI50 (OVCAR-8): 19.2 µM (inactive)
- GI50 (PC-3): 13.5 µM (inactive)
- GI50 (RPMI-8226): 14.1 µM (inactive)
- GI50 (RXF 393): 18.6 µM (inactive)
- GI50 (SF-295): 10.9 µM (inactive)
- GI50 (SF-539): 21 µM (inactive)
- GI50 (SK-MEL-28): 18 µM (inactive)
- GI50 (SK-MEL-2): 1.71 µM (inactive)
- GI50 (SK-MEL-5): 13.8 µM (inactive)
- GI50 (SN12C): 14.7 µM (inactive)
- GI50 (SNB-19): 19 µM (inactive)
- GI50 (SNB-75): 27.7 µM (inactive)
- GI50 (SR): 11.1 µM (inactive)
- GI50 (SW-620): 17.1 µM (inactive)
- GI50 (T47D): > 100 µM (inactive)
- GI50 (U-251): 14.5 µM (inactive)
- GI50 (UACC-257): 19.3 µM (inactive)
- GI50 (UACC-62): 14.8 µM (inactive)
- GI50 (UO-31): 17.6 µM (inactive)
